The target in one test is HIV RT polymerase (Human immunodeficiency virus type 1 group M subtype B, UniProt P04585). Type of test: biochemical, HIV-1. As to conditions: RNase H with HTS-1 as substrate.
The next test has as its target HIV integrase (Human immunodeficiency virus type 1 group M subtype B, UniProt P04585). Put plainly: HIV IN strand transfer. The test is classed as biochemical, HIV-1. As to conditions: INST IC50, tested 0.13-100 µM.

Consider `Cc1ccc(-c2ccc(Nc3cc(=O)n(O)c(=O)[nH]3)cc2)cc1` [11b, 3-Hydroxy-6-((4'-methyl-[1,1'-biphenyl]-4-yl)amino)pyrimidine-2,4(1H,3H)-dione], for which the “SI (IC50 RT pol / IC50 RNase H)” value at HIV RT polymerase is 5.7 (14). The term IC50 denotes the concentration that gives 50% inhibition. Take `COc1ccc(-c2cccc(Nc3cc(=O)n(O)c(=O)[nH]3)c2)c(OC)c1` [11l, 6-((2',4'-Dimethoxy-[1,1'-biphenyl]-3-yl)amino)-3-hydroxypyrimidine-2,4(1H,3H)-dione]: the IC50 against HIV integrase was in the range of 1200 to 1300 nM.

With `COc1ccc(-c2cccc(Nc3cc(=O)n(O)c(=O)[nH]3)c2)cc1` [11j, 3-Hydroxy-6-((4'-methoxy-[1,1'-biphenyl]-3-yl)amino)pyrimidine-2,4(1H,3H)-dione], on HIV RT polymerase, the “SI (IC50 RT pol / IC50 RNase H)” value is listed as 6.3 (32). In addition, the IC50 at HIV integrase is above 100000 nM. `COc1cccc(OC)c1-c1cccc(Nc2cc(=O)n(O)c(=O)[nH]2)c1` [11m, 6-((2',6'-Dimethoxy-[1,1'-biphenyl]-3-yl)amino)-3-hydroxypyrimidine-2,4(1H,3H)-dione] had a concentration for half-maximal inhibition (IC50) against HIV integrase of 1200 to 1300 nM. As for `O=c1cc(Nc2cccc(-c3ccc(F)cc3)c2)[nH]c(=O)n1O` [11o, 6-((4'-Fluoro-[1,1'-biphenyl]-3-yl)amino)-3-hydroxypyrimidine-2,4(1H,3H)-dione], the “SI (IC50 RT pol / IC50 RNase H)” value at HIV RT polymerase is reported as 6.6 (33). On HIV integrase, the IC50 is above 100000 nM.

The record behind these values is publication PMC4871627 (Journal of medicinal chemistry, 2016).
